Results taken from US7824687B2, “Clustered multi-antigenic carbohydrate constructs, methods for their preparation, and uses thereof” (Sloan-Kettering Institute For Cancer Research, priority 1999, dated 2010).

Tests used:
monoclonal antibody F12 = assay: Binding to monoclonal antibody F12 (ELISA, immune thin layer chromatography, inhibition)
From the text: In yet another example, a fucosyl GM1-KLH glycoconjugate is generated according to the method of the present invention, as discussed in Example 1. […] Clearly, the synthetic fucosyl GM1 pentenyl glycoside provides the antigenic epitope with which F12 reacts on SCLC cells.

[1] = system: GD3-KLH and MUC1-KLH conjugates; conditions: mouse; cited from earlier work

fucosyl GM1 pentenyl glycoside [n-pentenyl fucosyl GM1]
binding to monoclonal antibody F12 (monoclonal antibody F12; ELISA and immune thin layer chromatography assays, prior to conjugation): shown to bind
inhibition of reactivity of natural fucosyl GM1 with F12 (monoclonal antibody F12; preincubation of F12): completely inhibits

QS-21
augmentation of antibody responses compared to the conjugates alone [1]: 1000-100,000 fold
